The values below come from publication PMC3458928, “Co-Factor Binding Confers Substrate Specificity to Xylose Reductase from Debaryomyces hansenii” (PLoS ONE, 2012).

The target in experiment [1] is Xylose Reductase from Debaryomyces hansenii (Debaryomyces hansenii CBS767). Description: SEC; purified DhXR, single peak at 52 mL; column calibrated with ferritin, catalase, aldolase, albumin and ovalbumin; estimated mass ~71 kDa.
The target of experiment [2] is apo-DhXR (wild type xylose reductase) (Debaryomyces hansenii, UniProt Q6BLI9). Nature of the experiment: Tryptophan fluorescence quenching titration, ligand binding to apo-DhXR wild type. Particulars: for Kd: 25 °C. Here is the method: (§1) Titrations of DhXR with ligands were examined by monitoring the intrinsic tryptophan fluorescence of DhXR using a Varian spectrofluorometer. Experiments were performed in indicated buffers as mentioned in the text. The excitation wavelength and emission wavelengths for monitoring DhXR-ligand interaction were 292 nm and 345 nm respectively. Slit widths were set to 5 nm for all experiments and PMT voltage was adjusted to get maximum signal for a given protein concentration. All experiments were done at 25.0±1°C. Initial readings of both the protein, Fprotein,0 and buffer, Fbuff,0 were taken, with F0 = Fprotein,0–Fbuff,0 defined as the initial fluorescence of the sample. The sample cuvette was then titrated with aliquots of ligands and mixed, and equilibrated for 3–4 minutes before measurement. Data points from five such measurements were averaged to obtain Fave,i. The relative fluorescence quenching upon sugar binding is defined as Qobs,i = (F0–Fave,i)/F0. All measurements were corrected for dilution, and inner filter effects.
(§2) Binding of ligands to DhXR was analyzed using two site binding model. [drawing 1] (1) where Q1 and Q2 are the fluorescence quenching corresponding to one and two ligands bound, respectively; L is concentration of free ligand in solution; K1,obs and K2,obs are association constants for the binding of the first and the second ligand molecule. Errors were calculated from fitting analysis of two independent experiments.
We examined the binding of D-xylose, xylitol, and NADPH to apo-DhXR. Quenching of tryptophan fluorescence upon ligand binding was used as the signal for monitoring the extent of binding. Apo-DhXR was excited at 292 nm and emission of tryptophan fluorescence was scanned between 300–375 nm (Fig. S2). […] Intrinsic site-specific binding constants are estimated from the macroscopic binding constants obtained from fitting by removing the statistical factors as in eq (2). [drawing 2] (2)

The target of experiment [3] is T1, DhXR D10A mutant (Debaryomyces hansenii, UniProt Q6BLI9, D10A).
T1 sequence (Q6BLI9 1-317 D10A): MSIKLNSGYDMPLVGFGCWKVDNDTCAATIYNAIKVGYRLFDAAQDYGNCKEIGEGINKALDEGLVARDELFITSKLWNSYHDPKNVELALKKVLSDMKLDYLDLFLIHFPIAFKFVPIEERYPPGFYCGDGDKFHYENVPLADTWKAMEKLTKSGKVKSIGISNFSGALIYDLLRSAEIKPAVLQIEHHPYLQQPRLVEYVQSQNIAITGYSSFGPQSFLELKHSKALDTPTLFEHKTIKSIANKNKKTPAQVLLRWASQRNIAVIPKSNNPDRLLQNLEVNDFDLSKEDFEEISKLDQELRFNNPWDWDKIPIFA
Nature of the experiment: Fluorescence quenching titration, ligand binding to DhXR D10A mutant. Here is the method:
as §1, §2
(§3) We tested the activity of all mutants and activities were normalized to the activity of wild type DhXR with respect to its D-xylose reducing activity.

The target in experiment [4] is T2, DhXR D42A mutant (Debaryomyces hansenii, UniProt Q6BLI9, D42A).
T2 sequence (Q6BLI9 1-317 D42A): T1 sequence (Q6BLI9 1-317 D10A)
Nature of the experiment: Fluorescence quenching titration, ligand binding to DhXR D42A mutant. How it is done:
as §1, §2, §3

Experiment [5] addresses DhXR H109A mutant (Debaryomyces hansenii, UniProt Q6BLI9, H109A). Nature of the experiment: biochemical. The format is binding. Here is the method: as §1, §2, §3
In experiment [6] the target is DhXR K76A mutant (Debaryomyces hansenii, UniProt Q6BLI9, K76A). Description: biochemical. It counts as binding. Here is the method: as §1, §2, §3
Experiment [7] has as its target DhXR Y47A mutant (Debaryomyces hansenii, UniProt Q6BLI9, Y47A). Nature of the experiment: biochemical. The format is binding. How it is done: as §1, §2, §3
Experiment [8] has as its target T3, DhXR N305A mutant (Debaryomyces hansenii, UniProt Q6BLI9, N305A).
T3 sequence (Q6BLI9 1-317 N305A): T1 sequence (Q6BLI9 1-317 D10A)
Nature of the experiment: Fluorescence quenching titration, ligand binding to DhXR N305A mutant. Here is the method: as §1, §2, §3

In experiment [9] the target is T4, holo-DhXR (Debaryomyces hansenii, UniProt Q6BLI9). Nature of the experiment: Steady state kinetics of carbonyl substrate reduction by holo-DhXR (A340, NADPH). The following applies: Km of holoenzyme vs Kd of apoenzyme. The format is biochemical. How it is done: (§4) The xylose reductase activities of recombinant DhXR was determined spectrophotometrically by monitoring the change in A340 upon reduction of NADPH to NADP. The standard assay mixture contained 50 mM KPO4, pH 7.0, 100 mM sugar substrate, 0.3 mM NADPH, 0.18 µM of enzyme. Single point activity studies were performed at 40°C and all reactions were started by the addition of enzyme to a final volume of 0.8 ml (in standard assay condition). […] Errors for the activity assays were calculated from triplicate experiments. The kinetic parameters were determined using a range of substrate concentrations. Here, the reaction was performed at 25°C and assay mixture contained 50 mM KPO4, pH 7.0, 0.15 mM NADPH, 0.18 µM of enzyme and varying substrate concentrations. Steady state kinetics data were fit to Michaelis-Menten model, v = Vmax * [S]/([S]+Km), where Vmax, maximal velocity; Km, Michaelis-Menten constant; S, substrate concentration, and v, initial velocity.
To understand the specificity determining component in catalysis, we studied the steady state kinetics of holo-DhXR towards different carbonyl substrates. […] Therefore, all kinetic data analyzed fitting to Michaelis-Menten model by Non-Linear Least Squares method. (Fig. 4A). Steady state kinetic parameters are also determined for other sugars (table 3, Fig. 4B). […] We compared the Km/Kd ratio as an indicator of net affinity loss for a given substrate (Fig. S5).
In order to further verify that holoenzyme discriminates between substrate and non-substrate sugars, we challenged the catalysis of D-xylose by adding non-substrate sugars during kinetic experiments. […] We studied the kinetics of D-xylose reduction by holo-DhXR in the presence of fixed concentration (∼40 mM) of three sugars (Fig. 4C).

For experiment [10], the target named is T4, holo-DhXR. Description: Specific activity of DhXR with 100 mM D-xylose in presence of competing sugars. The format is biochemical. Particulars: 100 mM D-xylose alone, 0 mM competing sugar. How it is done: as §4
(§5) Assays were performed at 100 mM D-xylose and concentrations of competing sugars were varied (25 mM to 400 mM). […] Both DhXR and NADPH (20.0 µM) are pre-incubated and fluorescence signal was monitored until no further change. […] It should be noted that D-xylose is the substrate and is very likely to be reduced soon after binding.

In experiment [11] the test system is DhXR-NADPH complex. Description: Fluorescence titration of pre-formed DhXR-NADPH binary complex. The following applies: DhXR pre-incubated with 20.0 µM NADPH. It counts as binding, Debaryomyces hansenii. How it is done: as §1, §5

“And” between values parts separate entries of the source, which are not always exact repeats. Equal values may be shown once. Read-outs that look alike come from different tables or passages of the source.

Turning to “Xylose Reductase from Debaryomyces hansenii (enzyme)”, in experiment [1], the stoichiometry N was 2.
Regarding `O=C[C@H](O)[C@@H](O)[C@H](O)CO` [D-xylose], the Kd was ~5.3 mM and 5.3 mM in [2] (Kd1,int, wild type apo-DhXR, first site); 17 mM and 17.2 mM in experiment [2] (read-out: Kd2,int, wild type apo-DhXR, second site); 6.7 ± 1 mM in [3]; 5.1 ± 0.6 mM in experiment [4]; 47.6 ± 18 mM in experiment [4] (read-out: Kd2,int, D42A, second site); 13.3 ± 2 mM in [5]. Moreover, the values for the Kd in [6], in [7] and in [8] were 12.8 ± 2 mM, 12.9 ± 2 mM and 6.4 ± 2 mM, respectively. Further, the “ratio of first to second intrinsic binding constant” value in [2] (affinity of first vs second ligand molecule) was ~4. Also, in experiment [2] (from logarithmic (Hill) plot), the “Hill coefficient, nH” value is given as ~0.68. Besides, the “K1,int (intrinsic association constant, first ligand)” value in experiment [2] (wild type apo-DhXR) is 1.9±0.6×10^2 M^−1. For the same compound, in experiment [2] (wild type apo-DhXR), the “K2,int (intrinsic association constant, second ligand)” value is listed as 5.8±0.1×10^1 M^−1. Further, the “Km/Kd ratio (net affinity loss)” value in [9] is reported as 12–15 fold. Moreover, in [10], the Specific activity came out at 72.5 ± 2.4 nmol/min. Also, the “binding to DhXR-NADPH complex (fluorescence signal)” value in experiment [11] is listed as “showed further quenching of fluorescence”.
